Experiments:
[1] = tested on: human lung adenocarcinoma A549 cells; test: Cytotoxicity against lung cancer cells A549 (MTT assay); type: cell-based; conditions: for IC50 / viability at 50 µg/mL: Homo sapiens, A549, MTT; for IC50: 72 h of treatment, mean ± SE; for Selectivity Index SI: SI = IC50 value for normal cells (MRC-5)/IC50 value for cancer cells (A549); for viability at 50 µg/mL: 50 μg/mL, 72 h, read-out: cell viability of cancer cells
Method: (§1) The effect of the AMTs 1–8 on cell viability was investigated in the human lung cancer cell line A549. […] It has been reported that compounds with SI value higher or equal to 2.0 are potentially selective. […] It is worth noting that after treatment with 50 μg/mL of these two AMTs, the cell viability was lower than 15% for cancer cells and higher than 55% for normal cells.
(§2) Figure 4 Effects of different concentrations of meroterpenoids 1–8 on the viability of human lung cancer cell line A549 and the human fetal lung fibroblastic MRC-5 cells, using MTT assay after 72 h of treatment. Data are mean ±SE of three independent experiments. * p < 0.05, ** p < 0.01 and […] between the two cell lines.
(§3) Cell proliferation was evaluated by a modified MTT assay, which measures the mitochondrial dehydrogenase activity. A total of 5 × 10^3 cells/well (MRC-5 cells) and 3 × 10^3 cells/well (A549 cells) were cultured in a 96-well plate for 24 h. Then, treatments were added to the cell culture. After 72 h of incubation, the medium was removed and 125 µL of MTT (1 mg/mL in medium) was added to each well and incubated for 4 h. Next, 80 µL of 20% sodium dodecyl sulphate (SDS) was added and incubated for 5 h at 37 °C. The optical density of each well was measured at 540 nm (Synergy HT multiwell plate spectrophotometer reader, BioTek Instruments Inc., Winooski, VT, USA) to quantify cell viability. Cell viability (%) was calculated according to the following formula: % viability = (absorbance of compounds treated cells/absorbance of control cells) × 100. The degree of selectivity of the compounds was expressed by its SI value. Each SI value was calculated using the formula: SI = IC50 normal cell/IC50 cancer cell.

[2] = tested on: human fetal lung fibroblastic MRC-5 cells; test: Cytotoxicity against normal lung cells MRC-5 (MTT assay); type: cell-based; conditions: Homo sapiens, MRC5, 72 h of treatment, mean ± SE
Method: as §1, §2, §3

COX-2 = COX-2 protein expression in LPS-stimulated THP-1 macrophages (western blot); type: cell-based, human; conditions: 1 h pretreatment, then LPS 1 μg/mL 24 h
Method: COX-2 is the key enzyme regulating the production of prostaglandins, which are the central mediators of inflammation. On the other hand, iNOS enzyme represents an important molecular target closely involved in inflammatory responses. Thus, the effect of the AMTs 1–8 on LPS-induced COX-2 and iNOS protein expression was investigated by western blot analysis.
Figure 3 Effect of meroterpenoids 1–8 on LPS-induced COX-2 and iNOS protein expression in THP-1 macrophages. Cells were pretreated for 1 h with the compounds (1, 2, 3, 4, 7, and 8 at 8 μg/mL; 5 and 6 at 4 μg/mL) and then stimulated with LPS (1 μg/mL). Cytosolic lysates from 24 h-stimulated cells were separated on 10% SDS-PAGE. COX-2, iNOS, and β-actin were detected by western blot analysis. Data are expressed as means ± SE from three independent experiments. Statistical significance is indicated (+++ p < 0.001 and ++ p < 0.01, vs. Control, respectively; * p < 0.05, and ** p < 0.01 vs. Control + LPS).
Western blotting was used to measure the protein levels of COX-2 and iNOS [65]. THP-1 macrophages were plated at a density of 1 × 10^6 cells/mL in six-well plates, treated for 1 h with compounds 1–8 (8 μg/mL for compounds 1, 2, 3, 4, 7, and 8, and 4 μg/mL for compounds 5 and 6), and then stimulated with 1 μg/mL of LPS in medium at 37 °C. After 24 h, the cells were washed with ice-cold PBS, collected, suspended in the lysis buffer (250 mM NaCl, 50 mM Tris (pH 7.5), 0.5 mM EDTA, 5 mM EGTA, 8 mM MgCl2, 1 mM PMSF, 0.01 mg/mL pepstatin A, 0.01 mg/mL leupeptin, 0.01 mg/mL aprotinin, 1% Triton X-100) and centrifuged at 12,000× g at 4 °C for 3 min to yield cell lysates. Proteins concentration in cell lysates was determined by Bio-Rad Protein Assay, based on the method of Bradford (BioRad, Richmond CA, USA). Cytosolic proteins (50 μg) were separated with 10% SDS-polyacrylamide gel electrophoresis and transferred on PVDF membranes. The membranes were then blocked with 5% (w/v) non-fat dry milk in Tris-buffered saline containing 0.1% Tween-20 (pH 7.4) (TBST) buffer at room temperature for 1 h. The membranes were washed three times (10 min) in TBST buffer and incubated with specific primary antibodies anti-COX-2 (1:3000) or anti-iNOS (1:1000) diluted in 5% (w/v) non-fat dry milk in TBST buffer, at 4 °C overnight. Then, the membranes were incubated with peroxidase-conjugated […] goat anti-rabbit IgG (1: 1000) for 1 h at room temperature. To ascertain that blots were loaded with equal amounts of protein lysates, they were also incubated in the presence of the antibody against β-actin protein (1:10,000). After washing the membrane again with TBST buffer (10 min) three times, the antibody was visualized using an enhanced chemiluminescence light-detecting kit (Super-Signal West Pico Chemiluminescent Substrate, Pierce, IL, USA), according to the manufacturer’s instructions and exposed to an X-ray film (GE Healthcare Ltd., Amersham, UK). The protein band densities were quantified using a Scientific Imaging Systems (Biophotonics ImageJ Analysis Software, National Institute of Mental Health, Bethesda, MD, USA).

Structure (SMILES) | IC50 [1] [µg/mL] | Selectivity Index SI [1] | IC50 [2] [µg/mL] | decrease of COX-2 levels (COX-2; 4 μg/mL) [%] | effect on expression of COX-2 (in words) (COX-2; 8 μg/mL) | viability at 50 µg/mL [1] [%] | decrease of COX-2 levels (COX-2; 8 μg/mL) [%]
COc1c(C)cc(O)cc1C/C=C(\C)CC(=O)/C=C(\C)CCCC(C)C(=O)/C=C/C(C)(C)O (stereo not shown) [Compound 6, amentadione-1′-methyl ether] | 6.19 ± 0.25 | 1.43 | 8.87 ± 0.05 | 64.23 |  |  | 
COc1c(C)cc(O)cc1C/C=C(\C)CC(=O)/C=C(/C)CCCC(C)C(=O)/C=C/C(C)(C)O (stereo not drawn) [Compound 5, 6-cis-amentadione-1′-methyl ether] | 4.56 ± 0.21 | 1.83 | 8.39 ± 0.14 | 53.52 |  |  | 
COc1c(C)cc(O)cc1C/C=C(\C)CC(=O)/C=C(/C)CCCC(C)(O)C(=O)/C=C/C(C)(C)O (stereo not shown) [Compound 1, usneoidone Z] | 8.68 ± 0.15 | 1.22 | 10.6 ± 0.5 |  | no significant effect |  | 
COc1c(C)cc(O)cc1C/C=C(\C)CC(=O)/C=C(\C)CCCC(C)(O)C(=O)/C=C/C(C)(C)O (stereo not shown) [Compound 2, 11-hydroxy-1’-O-methylamentadione] | 6.61 ± 0.38 | 1.30 | 8.65 ± 0.18 |  | significantly down-regulated |  | 
COc1c(C)cc(O)cc1C/C=C(\C)CC(=O)/C=C(/C)CCCC(C)=O [Compound 4, cystomexicone A] | 21 ± 1.79 | 2.78 | 58.4 ± 3.3 |  | significantly down-regulated | < 15 | 
COc1c(C)cc(O)cc1/C=C/C(C)(O)CC(=O)/C=C(/C)CCCC(C)C(=O)/C=C/C(C)(C)O (stereo not shown) [Compound 7, cystodione A] | 9.31 ± 0.33 | 1.55 | 14.5 ± 1.14 |  |  |  | 58.05
COc1c(C)cc(O)cc1C/C=C(\C)CC(=O)/C=C(\C)CCCC(C)=O [Compound 3, cystomexicone B] | 24.4 ± 1.71 | 2.12 | 51.9 ± 2.76 |  |  | < 15 | 53.35
COc1c(C)cc(O)cc1/C=C/C(C)(O)CC(=O)/C=C(\C)CCCC(C)C(=O)/C=C/C(C)(C)O (stereo not shown) [Compound 8, cystodione B] | 13.6 ± 0.55 | 1.28 | 17.83 ± 0.09 |  | no significant effect |  | 

From publication PMC7230911, “Meroterpenoids from the Brown Alga Cystoseira usneoides as Potential Anti-Inflammatory and Lung Anticancer Agents” (Marine Drugs, 2020)
